Our source for the Km values is publication PMC8774190, “Characterization and Modification of Light-Sensitive Phosphodiesterases from Choanoflagellates” (Biomolecules, 2022).

In the assay the test system is T1, CfRhoPDE1.
T1 construct: full-length with N-terminal YFP tag kept; gene codon-optimised to Mus musculus, pGEMHE vector; Xenopus oocyte membrane fraction; all-trans retinal supplied
Nature of the assay: cGMP hydrolysis by oocyte membranes, chemiluminescent immunoassay, Michaelis-Menten fit. Format: biochemical, Choanoeca flexa. As to conditions: dark; pH 7.3, 5 mM MgCl2, 100 mM NaCl, 5 mM DTT; 1-100 μM cGMP.

One may read the Km as the substrate concentration at which the rate is half of its maximum. Regarding `Nc1nc2c(ncn2[C@@H]2O[C@@H]3COP(=O)(O)O[C@H]3[C@H]2O)c(=O)[nH]1` [cGMP], the Km was approximately 15 µM.
